# Marks after values point to notes of the source that are not given here.
# Tested on: DBA/2 mice
# Assay: mouse audiogenic seizure test
# Format: in vivo
# Details: for Clonic convulsion - presence, Total / Tonic convulsion - presence, Total / Wild running - presence, Total: number of mice, n = 10
# Text: The Audiogenic Seizure Test, which detects anticonvulsant activity, follows that described by Durmüller et al., 1993. Mice of the DBA/2 strain undergo an age-dependent sequence of convulsions (wild-running, clonic convulsion, tonic convulsion and respiratory arrest) within 60 seconds of exposure to a loud sound of 110-120 dB. The type of convulsions are consistent with aspects of generalised seizure in humans.
# Male DBA/2 mice (3-4 weeks old) were supplied by Janvier Labs (53940 Le Genest-Saint-Isle, France); weight range 6-13 g at the beginning of the experiment. Animals were acclimatized to the Test Facility for 1 day after delivery and randomly housed in groups of 5 in macrolon cages on wood litter with free access to food and water.
# The animal house was maintained under artificial lighting (12 hours) between 7:00 and 19:00 in a controlled ambient temperature of 22±2 °C and relative humidity between 30-70%.
# Mice were individually transferred (at 3-5 minutes intervals) from the preparation room into an adjacent experimental room and body temperature was measured using a rectal thermometer (Digital Laboratory Thermometer: Model BAT-12). Immediately after, they were placed in a Plexiglas jar (Diameter=40 cm; Height=35 cm) mounted with an electric bell (110-120 dB, supplier Leroy Merlin, France). Upon activating the bell, the occurrences and latencies to wild running fits, clonic and tonic seizures were measured. Deaths were also recorded. The bell was activated until a tonic seizure occurred, or for a maximum of 60 seconds.
# The experiment included groups of 10 mice per group. Experimenters were only partially blinded to treatment group as pre-treatment times were different.
# The test substance was evaluated at various doses, administered i.p. (10 ml/kg) 15 or 30 minutes before the test, and compared with a vehicle control group.
# Due to the number of animals tested, the experiment was divided in 2 sub-experiments on 2 separate days (7 days apart) with 5 mice per group in each sub-experiment.
# Data were tested for normality using d'Agostino-Pearson Test and found to not follow a normal distribution. Statistical outliers were not identified or removed because no behavioural outliers were identified. Quantitative data (latencies) with the test substance were analyzed by comparing treated groups with vehicle control using Kruskal-Wallis test followed by Dunn's multiple comparisons test. Quantitative data with the reference substance were analyzed using Mann-Whitney U test. Quantal data (frequencies) were analyzed by comparing treated groups with vehicle control using Fisher's Exact Probability test.
structure (smiles),measurement,setting,value
"CCCc1cc(O)c(-c2c(C)ccn3ccnc23)c(O)c1 [Compound 2, 2-(7-Methylimidazo[1,2-a]pyridin-8-yl)-5-propylbenzene-1,3-diol]",latency to tonic convulsions (significance in words),3 mg/kg i.p. vs vehicle,no significant differences
same,"Clonic convulsion - latency, Change from vehicle","3 mg/kg i.p., 30 min",+10%
same,"Clonic convulsion - presence, Change from vehicle","3 mg/kg i.p., 30 min",+25%
same,"Tonic convulsion - latency, Change from vehicle","3 mg/kg i.p., 30 min",+23%
same,"Tonic convulsion - presence, Change from vehicle","3 mg/kg i.p., 30 min",+14%
same,"Wild running - latency, Change from vehicle","3 mg/kg i.p., 30 min",+16%
same,"Wild running - presence, Change from vehicle","3 mg/kg i.p., 30 min",+11%
same,"Clonic convulsion - presence, Total","3 mg/kg i.p., 30 min",10
same,"Tonic convulsion - presence, Total","3 mg/kg i.p., 30 min",8
same,"Wild running - presence, Total","3 mg/kg i.p., 30 min",10
same,latency to tonic convulsions (significance in words),10 mg/kg i.p. vs vehicle,significantly increased
same,"Clonic convulsion - latency, Change from vehicle","10 mg/kg i.p., 30 min",+44%
same,"Clonic convulsion - presence, Change from vehicle","10 mg/kg i.p., 30 min",−13%
same,"Tonic convulsion - latency, Change from vehicle","10 mg/kg i.p., 30 min",+400%*
same,"Tonic convulsion - presence, Change from vehicle","10 mg/kg i.p., 30 min",−57%
same,"Wild running - latency, Change from vehicle","10 mg/kg i.p., 30 min",+27%
same,"Wild running - presence, Change from vehicle","10 mg/kg i.p., 30 min",−11%
same,"Clonic convulsion - presence, Total","10 mg/kg i.p., 30 min",7
same,"Tonic convulsion - presence, Total","10 mg/kg i.p., 30 min",3
same,"Wild running - presence, Total","10 mg/kg i.p., 30 min",8
same,latency to clonic convulsions (significance in words),30 mg/kg i.p. vs vehicle,significantly increased
same,latency to tonic convulsions (significance in words),30 mg/kg i.p. vs vehicle,significantly increased
same,latency to wild running (significance in words),30 mg/kg i.p. vs vehicle,significantly increased
same,"Clonic convulsion - latency, Change from vehicle","30 mg/kg i.p., 15 min",+574%**
same,"Tonic convulsion - latency, Change from vehicle","30 mg/kg i.p., 15 min",+400%**
same,"Wild running - latency, Change from vehicle","30 mg/kg i.p., 15 min",+1076%***
same,"Clonic convulsion - presence, Total","30 mg/kg i.p., 15 min",2
same,"Tonic convulsion - presence, Total","30 mg/kg i.p., 15 min",0
same,"Wild running - presence, Total","30 mg/kg i.p., 15 min",2
same,latency to clonic convulsions (significance in words),3 and 10 mg/kg i.p. vs vehicle,no significant differences
same,latency to wild running (significance in words),3 and 10 mg/kg i.p. vs vehicle,no significant differences
same,number of mice displaying clonic convulsions (significance in words),3 or 10 mg/kg i.p.,no significant differences
same,number of mice displaying tonic convulsions (significance in words),3 or 10 mg/kg i.p.,no significant differences
same,number of mice displaying wild running (significance in words),3 or 10 mg/kg i.p.,no significant differences
"CCCc1cc(O)c(-c2c(C)c(Cl)cn3ccnc23)c(O)c1 [Compound 4, 2-(6-Chloro-7-methylimidazo[1,2-a]pyridin-8-yl)-5-propylbenzene-1,3-diol]","Clonic convulsion - latency, Change from vehicle","3 mg/kg i.p., 30 min",−5%
same,"Clonic convulsion - presence, %","3 mg/kg i.p., 30 min",100%
same,"Clonic convulsion - presence, Change from vehicle","3 mg/kg i.p., 30 min",0%
same,"Tonic convulsion - latency, Change from vehicle","3 mg/kg i.p., 30 min",+6%
same,"Tonic convulsion - presence, %","3 mg/kg i.p., 30 min",90%
same,"Tonic convulsion - presence, Change from vehicle","3 mg/kg i.p., 30 min",−10%
same,"Wild running - latency, Change from vehicle","3 mg/kg i.p., 30 min",−2%
same,"Wild running - presence, %","3 mg/kg i.p., 30 min",100%
same,"Wild running - presence, Change from vehicle","3 mg/kg i.p., 30 min",0%
same,"Clonic convulsion - latency, Change from vehicle","10 mg/kg i.p., 30 min",+5%
same,"Clonic convulsion - presence, %","10 mg/kg i.p., 30 min",90%
same,"Clonic convulsion - presence, Change from vehicle","10 mg/kg i.p., 30 min",−10%
same,"Tonic convulsion - latency, Change from vehicle","10 mg/kg i.p., 30 min",+24%
same,"Tonic convulsion - presence, %","10 mg/kg i.p., 30 min",70%
same,"Tonic convulsion - presence, Change from vehicle","10 mg/kg i.p., 30 min",−30%
same,"Wild running - latency, Change from vehicle","10 mg/kg i.p., 30 min",+4%
same,"Wild running - presence, %","10 mg/kg i.p., 30 min",100%
same,"Wild running - presence, Change from vehicle","10 mg/kg i.p., 30 min",0%
same,latency to clonic convulsions (significance in words),30 mg/kg i.p. vs vehicle,significantly increased
same,latency to tonic convulsions (significance in words),30 mg/kg i.p. vs vehicle,significantly increased
same,latency to wild running (significance in words),30 mg/kg i.p. vs vehicle,significantly increased
same,"Clonic convulsion - latency, Change from vehicle","30 mg/kg i.p., 15 min",+368%**
same,"Clonic convulsion - presence, %","30 mg/kg i.p., 15 min",70%
same,"Clonic convulsion - presence, Change from vehicle","30 mg/kg i.p., 15 min",−30%
same,"Tonic convulsion - latency, Change from vehicle","30 mg/kg i.p., 15 min",+426%***
same,"Tonic convulsion - presence, %","30 mg/kg i.p., 15 min",10%
same,"Wild running - latency, Change from vehicle","30 mg/kg i.p., 15 min",+608%**
same,"Wild running - presence, %","30 mg/kg i.p., 15 min",70%
same,"Wild running - presence, Change from vehicle","30 mg/kg i.p., 15 min",−30%
same,latency to clonic convulsions (significance in words),60 mg/kg i.p. vs vehicle,significantly increased
same,latency to tonic convulsions (significance in words),60 mg/kg i.p. vs vehicle,significantly increased
same,latency to wild running (significance in words),60 mg/kg i.p. vs vehicle,significantly increased
same,"Clonic convulsion - latency, Change from vehicle","60 mg/kg i.p., 30 min, n = 9",+614%***
same,"Clonic convulsion - presence, %","60 mg/kg i.p., 30 min, n = 9",11%
same,"Tonic convulsion - latency, Change from vehicle","60 mg/kg i.p., 30 min, n = 9",+426%***
same,"Tonic convulsion - presence, %","60 mg/kg i.p., 30 min, n = 9",0%
same,"Wild running - latency, Change from vehicle","60 mg/kg i.p., 30 min, n = 9",+1150%***
same,"Wild running - presence, %","60 mg/kg i.p., 30 min, n = 9",22%
same,number of mice displaying clonic convulsions (significance in words),"3, 10 or 30 mg/kg i.p.",no significant differences
same,number of mice displaying wild running (significance in words),"3, 10 or 30 mg/kg i.p.",no significant differences
same,latency to clonic convulsions (significance in words),3 and 10 mg/kg i.p. vs vehicle,no significant differences
same,latency to wild running (significance in words),3 and 10 mg/kg i.p. vs vehicle,no significant differences
same,number of mice displaying tonic convulsions (significance in words),3 or 10 mg/kg i.p.,no significant differences
same,latency to tonic convulsions (significance in words),3 or 10 mg/kg i.p. vs vehicle,no significant differences
